Reference: patent US20050245399A1, “Pyrazole derivatives as herbicidal compositions containing them” (ISHIHARA SANGYO KAISHA, LTD., priority 2004, published 2005)

System: barnyardgrass (Echinochloa crus-galli L.), ECHCG
Assay: Test Example 2 post-emergence (foliage treatment) herbicidal activity, ECHCG
Assay type: in vivo
Conditions: 63 g a.i./ha
Excerpt: (§1) Upland field soil was put into a 1/170,000 ha pot, and seeds of various plants were sown. Then, when the plants reached predetermined leaf stages {1. barnyardgrass (Echinochloa crus-galli L.), ECHCG: 1.1-2.1 leaf stage, 2. crabgrass (Digitaria sanguinalis L.), DIGSA: 1.0-2.0 leaf stage, 3. green foxtail (Setaria viridis L.), SETVI: 1.0-2.2 leaf stage, 4. redroot pigweed (Amaranthus retroflexus L.), AMARE: 0.1-1.5 leaf stage, 5. prickly sida (Sida spinosa L.), SIDSP: 0.1-0.6 leaf stage, 6. velvetleaf (Abutilon theophrasti), ABUTH: 0.1-0.6 leaf stage, 7. common cocklebur (Xanthium strumarium L.), XANST: 0.1 leaf stage, 8. rice (Oryza sativa L.), ORYSA; 1.0-2 leaf stage, 9. wheat (Triticum aestivum L.), TRZAX: 2.3-3.5 leaf stage, 10. corn (Zea mays L.), ZEAMXN 2.1-2.6 leaf stage, 11. soybean (Glycine max Merr.), GLXMA: primary leaf stage}, a wettable powder or emulsifiable concentrate having the compound of the present invention formulated in accordance with a usual formulation method, was weighed so that the active ingredient would be a predetermined amount, and diluted with water in an amount of 500 L/ha. To the diluted solution, 0.1% (v/v) of an agricultural spreader was added. The herbicide adjusted was applied by a small size sprayer for foliage treatment. On the 20th to 23rd day after the application of the herbicide, the growth of the respective plants was visually observed, and the herbicidal effects were evaluated by growth controlling degrees (%) ranging from 0 (equivalent to the untreated control) to 100 (complete kill), whereby the results shown in Table 5, were obtained. Compound Nos. in Table 5 correspond to Compound Nos. in Table 1 and 2 given hereinbefore.

Compound | growth controlling degree, ECHCO
COc1c(Cl)cc(F)c(-c2nn(C)c(OC(F)F)c2Cl)c1NC(=O)C=Cc1ccc(F)cc1 [Compound 1-258] | 60%

System: barnyardgrass (Echinochloa crus-galli L.): ECHCG
Assay: Test Example 1 pre-emergence herbicidal activity, ECHCG
Assay type: in vivo
Conditions: Rate 63 g a.i./ha, visually observed 20th to 23rd day after application
Excerpt: (§2) Upland field soil was put into a 1/170,000 ha pot, and seeds of various plants {1. barnyardgrass (Echinochloa crus-galli L.): ECHCG, 2. crabgrass (Digitaria sanguinalis L.): DIGSA, 3. green foxtail (Setaria viridis L.): SETVI, 4. redroot pigweed (Amaranthus retroflexus L.): AMARE, 5. prickly sida (Sida spinosa L.): SEDSP, 6. velvetleaf (Abutilon theophrasti): ABUTH, 7. common cocklebur (Xanthium strumarium L.): XANST, 8. rice (Oryza sativa L.): ORYSA, 9. wheat (Triticum aestivum L.): TRZAX, 10. corn (Zea mays L.): ZEAMX, 11. soybean (Glycine max Merr.): GLXMA} were sown. Then, one day after the sowing, a wettable powder or emulsifiable concentrate having the compound of the present invention formulated in accordance with a usual formulation method, was weighed so that the active ingredient would be a predetermined amount and diluted with water in an amount of 500 L/ha. The herbicide adjusted was applied by a small size sprayer for preemergence treatment. On the 20th to 23rd day after the application of the herbicide, the growth of the respective plants was visually observed, and the herbicidal effects were evaluated by growth controlling degrees (%) ranging from 0 (equivalent to the untreated control) to 100 (complete kill), whereby the results shown in Table 4, were obtained. Compound Nos. in Table 4 correspond to Compound Nos. in Table 1 and 2 given hereinbefore.

Compound | Pre-emergence Herbicidal Activity ECHCG (growth controlling degree)
COc1c(Cl)cc(F)c(-c2nn(C)c(OC(F)F)c2Cl)c1NC(=O)C=Cc1ccc(F)cc1 [Compound 1-258] | 10%

System: green foxtail (Setaria viridis L.), SETVI
Assay: Test Example 2 post-emergence (foliage treatment) herbicidal activity, SETVI
Assay type: in vivo
Conditions: 63 g a.i./ha
Excerpt: as §1

Compound | growth controlling degree, SETVI
COc1c(Cl)cc(F)c(-c2nn(C)c(OC(F)F)c2Cl)c1NC(=O)C=Cc1ccc(F)cc1 [Compound 1-258] | 60%

System: rice (Oryza sativa L.), ORYSA
Assay: Test Example 2 post-emergence (foliage treatment) herbicidal activity, ORYSA
Assay type: in vivo
Conditions: 63 g a.i./ha
Excerpt: as §1

Compound | growth controlling degree, ORYSA
COc1c(Cl)cc(F)c(-c2nn(C)c(OC(F)F)c2Cl)c1NC(=O)C=Cc1ccc(F)cc1 [Compound 1-258] | 40%

System: green foxtail (Setaria viridis L.): SETVI
Assay: Test Example 1 pre-emergence herbicidal activity, SETVI
Assay type: in vivo
Conditions: Rate 63 g a.i./ha, visually observed 20th to 23rd day after application
Excerpt: as §2

Compound | Pre-emergence Herbicidal Activity SETVI (growth controlling degree)
COc1c(Cl)cc(F)c(-c2nn(C)c(OC(F)F)c2Cl)c1NC(=O)C=Cc1ccc(F)cc1 [Compound 1-258] | 30%

System: prickly sida (Sida spinosa L.): SEDSP
Assay: Test Example 1 pre-emergence herbicidal activity, SIDSP
Assay type: in vivo
Conditions: Rate 63 g a.i./ha, visually observed 20th to 23rd day after application
Excerpt: as §2

Compound | Pre-emergence Herbicidal Activity SIDSP (growth controlling degree)
COc1c(Cl)cc(F)c(-c2nn(C)c(OC(F)F)c2Cl)c1NC(=O)C=Cc1ccc(F)cc1 [Compound 1-258] | 70%

System: prickly sida (Sida spinosa L.), SIDSP
Assay: Test Example 2 post-emergence (foliage treatment) herbicidal activity, SIDSP
Assay type: in vivo
Conditions: 63 g a.i./ha
Excerpt: as §1

Compound | growth controlling degree, SIDSP
COc1c(Cl)cc(F)c(-c2nn(C)c(OC(F)F)c2Cl)c1NC(=O)C=Cc1ccc(F)cc1 [Compound 1-258] | 100%

System: corn (Zea mays L.), ZEAMX
Assay: Test Example 2 post-emergence (foliage treatment) herbicidal activity, ZEAMX
Assay type: in vivo
Conditions: 63 g a.i./ha
Excerpt: as §1

Compound | growth controlling degree, ZEAMX
COc1c(Cl)cc(F)c(-c2nn(C)c(OC(F)F)c2Cl)c1NC(=O)C=Cc1ccc(F)cc1 [Compound 1-258] | 10%

System: wheat (Triticum aestivum L.): TRZAX
Assay: Test Example 1 pre-emergence herbicidal activity, TRZAX
Assay type: in vivo
Conditions: Rate 63 g a.i./ha, visually observed 20th to 23rd day after application
Excerpt: as §2

Compound | Pre-emergence Herbicidal Activity TRZAX (growth controlling degree)
COc1c(Cl)cc(F)c(-c2nn(C)c(OC(F)F)c2Cl)c1NC(=O)C=Cc1ccc(F)cc1 [Compound 1-258] | 0%

System: rice (Oryza sativa L.): ORYSA
Assay: Test Example 1 pre-emergence herbicidal activity, ORYSA
Assay type: in vivo
Conditions: Rate 63 g a.i./ha, visually observed 20th to 23rd day after application
Excerpt: as §2

Compound | Pre-emergence Herbicidal Activity ORYSA (growth controlling degree)
COc1c(Cl)cc(F)c(-c2nn(C)c(OC(F)F)c2Cl)c1NC(=O)C=Cc1ccc(F)cc1 [Compound 1-258] | 40%

System: velvetleaf (Abutilon theophrasti), ABUTH
Assay: Test Example 2 post-emergence (foliage treatment) herbicidal activity, ABUTH
Assay type: in vivo
Conditions: 63 g a.i./ha
Excerpt: as §1

Compound | growth controlling degree, ABUTH
COc1c(Cl)cc(F)c(-c2nn(C)c(OC(F)F)c2Cl)c1NC(=O)C=Cc1ccc(F)cc1 [Compound 1-258] | 100%

System: wheat (Triticum aestivum L.), TRZAX
Assay: Test Example 2 post-emergence (foliage treatment) herbicidal activity, TRZAX
Assay type: in vivo
Conditions: 63 g a.i./ha
Excerpt: as §1

Compound | growth controlling degree, TRZAX
COc1c(Cl)cc(F)c(-c2nn(C)c(OC(F)F)c2Cl)c1NC(=O)C=Cc1ccc(F)cc1 [Compound 1-258] | 10%

System: soybean (Glycine max Merr.): GLXMA
Assay: Test Example 1 pre-emergence herbicidal activity, GLXMA
Assay type: in vivo
Conditions: Rate 63 g a.i./ha, visually observed 20th to 23rd day after application
Excerpt: as §2

Compound | Pre-emergence Herbicidal Activity GLXMA (growth controlling degree)
COc1c(Cl)cc(F)c(-c2nn(C)c(OC(F)F)c2Cl)c1NC(=O)C=Cc1ccc(F)cc1 [Compound 1-258] | 0%

System: crabgrass (Digitaria sanguinalis L.): DIGSA
Assay: Test Example 1 pre-emergence herbicidal activity, DIGSA
Assay type: in vivo
Conditions: Rate 63 g a.i./ha, visually observed 20th to 23rd day after application
Excerpt: as §2

Compound | Pre-emergence Herbicidal Activity DIGSP (growth controlling degree)
COc1c(Cl)cc(F)c(-c2nn(C)c(OC(F)F)c2Cl)c1NC(=O)C=Cc1ccc(F)cc1 [Compound 1-258] | 70%

System: velvetleaf (Abutilon theophrasti): ABUTH
Assay: Test Example 1 pre-emergence herbicidal activity, ABUTH
Assay type: in vivo
Conditions: Rate 63 g a.i./ha, visually observed 20th to 23rd day after application
Excerpt: as §2

Compound | Pre-emergence Herbicidal Activity ABUTH (growth controlling degree)
COc1c(Cl)cc(F)c(-c2nn(C)c(OC(F)F)c2Cl)c1NC(=O)C=Cc1ccc(F)cc1 [Compound 1-258] | 70%

System: corn (Zea mays L.): ZEAMX
Assay: Test Example 1 pre-emergence herbicidal activity, ZEAMX
Assay type: in vivo
Conditions: Rate 63 g a.i./ha, visually observed 20th to 23rd day after application
Excerpt: as §2

Compound | Pre-emergence Herbicidal Activity ZEAMX (growth controlling degree)
COc1c(Cl)cc(F)c(-c2nn(C)c(OC(F)F)c2Cl)c1NC(=O)C=Cc1ccc(F)cc1 [Compound 1-258] | 0%

System: redroot pigweed (Amaranthus retroflexus L.): AMARE
Assay: Test Example 1 pre-emergence herbicidal activity, AMARE
Assay type: in vivo
Conditions: Rate 63 g a.i./ha, visually observed 20th to 23rd day after application
Excerpt: as §2

Compound | Pre-emergence Herbicidal Activity AMARE (growth controlling degree)
COc1c(Cl)cc(F)c(-c2nn(C)c(OC(F)F)c2Cl)c1NC(=O)C=Cc1ccc(F)cc1 [Compound 1-258] | 100%

System: soybean (Glycine max Merr.), GLXMA
Assay: Test Example 2 post-emergence (foliage treatment) herbicidal activity, GLXMA
Assay type: in vivo
Conditions: 63 g a.i./ha
Excerpt: as §1

Compound | growth controlling degree, GLXMA
COc1c(Cl)cc(F)c(-c2nn(C)c(OC(F)F)c2Cl)c1NC(=O)C=Cc1ccc(F)cc1 [Compound 1-258] | 20%

System: crabgrass (Digitaria sanguinalis L.), DIGSA
Assay: Test Example 2 post-emergence (foliage treatment) herbicidal activity, DIGSA
Assay type: in vivo
Conditions: 63 g a.i./ha
Excerpt: as §1

Compound | growth controlling degree, DIGSP
COc1c(Cl)cc(F)c(-c2nn(C)c(OC(F)F)c2Cl)c1NC(=O)C=Cc1ccc(F)cc1 [Compound 1-258] | 40%
